Assay results: patent publication US20230085307A1, “PYRIDAZINONE COMPOUND AND HERBICIDE” (NISSAN CHEMICAL CORPORATION, priority 2019, published 2023)

Experiments:
chickweed [1] = assay: Test Example 4: herbicidal effect by soil treatment (Table 19, symbol P); format: in vivo, common chickweed (Stellaria media); conditions: amount of applied herbicide 320 g/ha
In short: (§1)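 Herbicidal effect was rated 3 weeks after treatment, using the scoring criteria of an earlier test. The compound, formulated as an emulsion and diluted in water to a set herbicide amount, had been sprayed uniformly on soil over freshly sown seeds. Growth took place in a greenhouse at 25° C. to 30° C.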

persian speedwell [2] = assay: Test Example 4: herbicidal effect by soil treatment (Table 19, symbol R); format: in vivo, Persian speedwell (Veronica persica); conditions: amount of applied herbicide 320 g/ha
In short: as §1

Chinese sprangletop = assay: Test Example 3: herbicidal effect by foliage application, Wagner pot (Table 18, symbol D); format: in vivo, chinese sprangletop (Leptochloa chinensis); conditions: amount of applied herbicide 320 g/ha
In short: (§2)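 Plants were sown in alluvial soil held under 0.1–0.5 cm standing water and grown 14 days in a greenhouse at 25–30 °C. An emulsifiable formulation, water-diluted to the set dose, was then sprayed onto the foliage, and effects were scored three weeks later using previously defined criteria.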

wild oat [3] = assay: Test Example 5: herbicidal effect by foliage application, plastic box (Table 20, symbol I); format: in vivo, wild oat (Avena fatua); conditions: foliage application, 320 g/ha, evaluated three weeks after application
In short: (§3)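 Foliar spray test: emulsion formulation diluted in water to a set application rate, sprayed onto 14-day-old plants raised in diluvial soil at 25° C to 30° C under glass. Both herbicidal effect and crop effect rated visually three weeks later.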

southern crabgrass [4] = assay: Test Example 5: herbicidal effect by foliage application, plastic box (Table 20, symbol F); format: in vivo, southern crabgrass (Digitaria ciliaris); conditions: foliage application, 320 g/ha, evaluated three weeks after application
In short: as §3

velvetleaf [5] = assay: Test Example 4: herbicidal effect by soil treatment (Table 19, symbol M); format: in vivo, velvetleaf (Abutilon theophrasti); conditions: amount of applied herbicide 320 g/ha
In short: as §1

green foxtail [6] = assay: Test Example 4: herbicidal effect by soil treatment (Table 19, symbol G); format: in vivo, green foxtail (Setaria viridis); conditions: amount of applied herbicide 320 g/ha
In short: as §1

persian speedwell [7] = assay: Test Example 5: herbicidal effect by foliage application, plastic box (Table 20, symbol R); format: in vivo, Persian speedwell (Veronica persica); conditions: foliage application, 320 g/ha, evaluated three weeks after application
In short: as §3

windgrass [8] = assay: Test Example 5: herbicidal effect by foliage application, plastic box (Table 20, symbol L); format: in vivo, windgrass (Apera spica-venti); conditions: foliage application, 320 g/ha, evaluated three weeks after application
In short: as §3

Italian ryegrass [9] = assay: Test Example 5: herbicidal effect by foliage application, plastic box (Table 20, symbol K); format: in vivo, Italian ryegrass (Lolium multiflorum); conditions: foliage application, 320 g/ha, evaluated three weeks after application
In short: as §3

blackgrass [10] = assay: Test Example 4: herbicidal effect by soil treatment (Table 19, symbol J); format: in vivo, blackgrass (Alopecurus myosuroides); conditions: amount of applied herbicide 320 g/ha
In short: as §1

lambsquarters [11] = assay: Test Example 5: herbicidal effect by foliage application, plastic box (Table 20, symbol O); format: in vivo, lambsquarters (Chenopodium album); conditions: foliage application, 320 g/ha, evaluated three weeks after application
In short: as §3

barnyard grass [12] = assay: Test Example 3: herbicidal effect by foliage application, Wagner pot (Table 18, symbol H); format: in vivo, barnyard grass (Echinochloa crus-galli); conditions: amount of applied herbicide 320 g/ha
In short: as §2

barnyard grass [13] = assay: Test Example 5: herbicidal effect by foliage application, plastic box (Table 20, symbol H); format: in vivo, barnyard grass (Echinochloa crus-galli); conditions: foliage application, 320 g/ha, evaluated three weeks after application
In short: as §3

wild oat [14] = assay: Test Example 4: herbicidal effect by soil treatment (Table 19, symbol I); format: in vivo, wild oat (Avena fatua); conditions: amount of applied herbicide 320 g/ha
In short: as §1

lambsquarters [15] = assay: Test Example 4: herbicidal effect by soil treatment (Table 19, symbol O); format: in vivo, lambsquarters (Chenopodium album); conditions: amount of applied herbicide 320 g/ha
In short: as §1

barnyard grass [16] = assay: Test Example 4: herbicidal effect by soil treatment (Table 19, symbol H); format: in vivo, barnyard grass (Echinochloa crus-galli); conditions: amount of applied herbicide 320 g/ha
In short: as §1

green foxtail [17] = assay: Test Example 5: herbicidal effect by foliage application, plastic box (Table 20, symbol G); format: in vivo, green foxtail (Setaria viridis); conditions: foliage application, 320 g/ha, evaluated three weeks after application
In short: as §3

Italian ryegrass [18] = assay: Test Example 4: herbicidal effect by soil treatment (Table 19, symbol K); format: in vivo, Italian ryegrass (Lolium multiflorum); conditions: amount of applied herbicide 320 g/ha
In short: as §1

redroot pigweed [19] = assay: Test Example 4: herbicidal effect by soil treatment (Table 19, symbol N); format: in vivo, redroot pigweed (Amaranthus retroflexus); conditions: amount of applied herbicide 320 g/ha
In short: as §1

chickweed [20] = assay: Test Example 5: herbicidal effect by foliage application, plastic box (Table 20, symbol P); format: in vivo, common chickweed (Stellaria media); conditions: foliage application, 320 g/ha, evaluated three weeks after application
In short: as §3

windgrass [21] = assay: Test Example 4: herbicidal effect by soil treatment (Table 19, symbol L); format: in vivo, windgrass (Apera spica-venti); conditions: amount of applied herbicide 320 g/ha
In short: as §1

blackgrass [22] = assay: Test Example 5: herbicidal effect by foliage application, plastic box (Table 20, symbol J); format: in vivo, blackgrass (Alopecurus myosuroides); conditions: foliage application, 320 g/ha, evaluated three weeks after application
In short: as §3

velvetleaf [23] = assay: Test Example 5: herbicidal effect by foliage application, plastic box (Table 20, symbol M); format: in vivo, velvetleaf (Abutilon theophrasti); conditions: foliage application, 320 g/ha, evaluated three weeks after application
In short: as §3

rice flat sedge = assay: Test Example 3: herbicidal effect by foliage application, Wagner pot (Table 18, symbol E); format: in vivo, rice flat sedge (Cyperus iria); conditions: amount of applied herbicide 320 g/ha
In short: as §2

redroot pigweed [24] = assay: Test Example 5: herbicidal effect by foliage application, plastic box (Table 20, symbol N); format: in vivo, redroot pigweed (Amaranthus retroflexus); conditions: foliage application, 320 g/ha, evaluated three weeks after application
In short: as §3

southern crabgrass [25] = assay: Test Example 4: herbicidal effect by soil treatment (Table 19, symbol F); format: in vivo, southern crabgrass (Digitaria ciliaris); conditions: amount of applied herbicide 320 g/ha
In short: as §1

CCCC(=O)Oc1c(C)nn(C)c(=O)c1-c1c(-c2ccc(F)cc2)sc2ccc(C)cc12 [2-135]
P: chickweed, herbicidal effect rating (chickweed [1]): 3 (Herbicidal rate of 40% or more and less than 70%)
R: persian speedwell, herbicidal effect rating (persian speedwell [2]): 0 (Herbicidal rate of 5% or less (almost no effect))
herbicidal effect on D: Chinese sprangletop (Chinese sprangletop): 0 (Herbicidal rate of 5% or less (almost no effect))
herbicidal effect on I: wild oat (wild oat [3]): 0 (Herbicidal rate of 5% or less (almost no effect))
herbicidal effect on F: southern crabgrass (southern crabgrass [4]): 0 (Herbicidal rate of 5% or less (almost no effect))
M: velvetleaf, herbicidal effect rating (velvetleaf [5]): 0 (Herbicidal rate of 5% or less (almost no effect))
G: green foxtail, herbicidal effect rating (green foxtail [6]): 0 (Herbicidal rate of 5% or less (almost no effect))
herbicidal effect on R: persian speedwell (persian speedwell [7]): 1 (Herbicidal rate of 5% or more and less than 20%)
herbicidal effect on L: windgrass (windgrass [8]): 0 (Herbicidal rate of 5% or less (almost no effect))
herbicidal effect on K: Italian ryegrass (Italian ryegrass [9]): 3 (Herbicidal rate of 40% or more and less than 70%)
J: blackgrass, herbicidal effect rating (blackgrass [10]): 0 (Herbicidal rate of 5% or less (almost no effect))
herbicidal effect on O: lambsquarters (lambsquarters [11]): 3 (Herbicidal rate of 40% or more and less than 70%)
herbicidal effect on H: barnyard grass (barnyard grass [12]): 1 (Herbicidal rate of 5% or more and less than 20%)
herbicidal effect on H: barnyard grass (barnyard grass [13]): 0 (Herbicidal rate of 5% or less (almost no effect))
I: wild oat, herbicidal effect rating (wild oat [14]): 0 (Herbicidal rate of 5% or less (almost no effect))
O: lambsquarters, herbicidal effect rating (lambsquarters [15]): 0 (Herbicidal rate of 5% or less (almost no effect))
H: barnyard grass, herbicidal effect rating (barnyard grass [16]): 0 (Herbicidal rate of 5% or less (almost no effect))
herbicidal effect on G: green foxtail (green foxtail [17]): 0 (Herbicidal rate of 5% or less (almost no effect))
K: Italian ryegrass, herbicidal effect rating (Italian ryegrass [18]): 1 (Herbicidal rate of 5% or more and less than 20%)
N: redroot pigweed, herbicidal effect rating (redroot pigweed [19]): 0 (Herbicidal rate of 5% or less (almost no effect))
herbicidal effect on P: chickweed (chickweed [20]): 5 (Herbicidal rate of 90% or more (almost completely withered))
L: windgrass, herbicidal effect rating (windgrass [21]): 0 (Herbicidal rate of 5% or less (almost no effect))
herbicidal effect on J: blackgrass (blackgrass [22]): 0 (Herbicidal rate of 5% or less (almost no effect))
herbicidal effect on M: velvetleaf (velvetleaf [23]): 4 (Herbicidal rate of 70% or more and less than 90%)
herbicidal effect on E: rice flat sedge (rice flat sedge): 3 (Herbicidal rate of 40% or more and less than 70%)
herbicidal effect on N: redroot pigweed (redroot pigweed [24]): 5 (Herbicidal rate of 90% or more (almost completely withered))
F: southern crabgrass, herbicidal effect rating (southern crabgrass [25]): 0 (Herbicidal rate of 5% or less (almost no effect))
